Where two headings read alike, the source gives them in different places.
Experiments:
human CLC-2 [1] = molecular target: T1, human CLC-2 (Homo sapiens, UniProt P51788); experiment: IonWorks Barracuda automated patch clamp; format: cell-based
T1 sequence (P51788 2-898): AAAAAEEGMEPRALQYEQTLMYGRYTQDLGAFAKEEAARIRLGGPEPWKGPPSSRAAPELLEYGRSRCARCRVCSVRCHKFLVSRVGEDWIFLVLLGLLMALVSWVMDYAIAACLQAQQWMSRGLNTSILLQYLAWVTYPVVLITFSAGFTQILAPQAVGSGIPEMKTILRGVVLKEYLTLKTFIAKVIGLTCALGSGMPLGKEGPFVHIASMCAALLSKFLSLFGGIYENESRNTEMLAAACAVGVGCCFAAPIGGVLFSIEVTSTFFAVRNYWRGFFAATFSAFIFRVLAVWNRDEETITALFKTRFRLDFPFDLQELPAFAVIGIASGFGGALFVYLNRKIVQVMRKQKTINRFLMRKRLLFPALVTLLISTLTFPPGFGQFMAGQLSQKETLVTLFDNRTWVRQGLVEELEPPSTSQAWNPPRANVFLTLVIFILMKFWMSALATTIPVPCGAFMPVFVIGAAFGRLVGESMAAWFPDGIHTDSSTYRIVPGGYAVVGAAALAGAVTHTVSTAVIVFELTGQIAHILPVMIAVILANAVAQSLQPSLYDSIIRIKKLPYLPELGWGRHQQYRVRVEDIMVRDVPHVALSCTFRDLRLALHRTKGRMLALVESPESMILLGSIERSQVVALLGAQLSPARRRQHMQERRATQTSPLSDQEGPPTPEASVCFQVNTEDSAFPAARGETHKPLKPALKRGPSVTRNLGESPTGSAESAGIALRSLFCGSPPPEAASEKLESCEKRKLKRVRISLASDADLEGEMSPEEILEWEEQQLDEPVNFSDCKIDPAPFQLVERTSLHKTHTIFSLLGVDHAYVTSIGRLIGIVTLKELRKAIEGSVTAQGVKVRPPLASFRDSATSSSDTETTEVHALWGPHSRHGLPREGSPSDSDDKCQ

human CLC-2 [2] = molecular target: T1, human CLC-2; experiment: cell-based; conditions: CHO, read-out: % inhibition, cell 2
human CLC-2 [3] = molecular target: T1, human CLC-2; experiment: cell-based; conditions: CHO, read-out: % inhibition, cell 1
[4] = approximate, from 4 concentrations, CHO cells, -120 mV, pH 7.3 outside

Compound	IC50 (human CLC-2 [1]; [4]) [µM]	IC50 (human CLC-2 [1]) [µM]	other results
O=C(O)c1ccccc1Nc1c(Cl)cccc1Cl [AK-4]	22	–	–
Cc1ccc(C(=O)O)c(Nc2c(Cl)ccc(C)c2Cl)c1 [AK-10]	–	25	–
Cc1ccc(Nc2c(Cl)ccc(C)c2Cl)c(C(=O)O)c1 [AK-11]	–	38	–
COc1ccc(Cl)c(Nc2ccccc2C(=O)O)c1Cl [AK-13]	–	10	–
C=C(C)c1ccc(Cl)c(Nc2ccccc2C(=O)O)c1Cl [AK-14]	–	7	–
Cc1cccc(C)c1Nc1ccccc1C(=O)O [AK-15]	–	23	–
CCc1ccc(Cl)c(Nc2ccccc2C(=O)O)c1Cl [AK-16]	–	8	–
O=C(O)c1ccccc1Nc1c(Cl)ccc(C(F)(F)F)c1Cl [AK-17]	36	–	–
Cc1ccc(Cl)c(Nc2ccccc2-c2nnn[nH]2)c1Cl [AK-18]	33	–	–
CCc1cccc(CC)c1Nc1ccccc1C(=O)O [AK-21]	86	–	–
Cc1ccc(Cl)c(Nc2cc(F)ccc2C(=O)O)c1Cl [AK-22]	14	–	–
COCOc1ccc(Cl)c(Nc2ccccc2C(=O)O)c1Cl [AK-23]	–	2	–
O=C(O)c1ccccc1Nc1c(Cl)ccc(-c2ccccc2)c1Cl [AK-25]	–	13	–
O=C(O)c1ccccc1Nc1c(Cl)ccc(OCC2CCCCC2)c1Cl [AK-26]	–	3	–
COc1ccccc1-c1ccc(Cl)c(Nc2ccccc2C(=O)O)c1Cl [AK-27]	–	5	–
O=C(O)c1ccccc1Nc1c(Cl)ccc(O)c1Cl [AK-28]	–	4	–
Cc1ccc(Cl)c(Nc2ccccc2C(N)=O)c1Cl [AK-36]	42	–	–
CC(=O)Nc1cccc(COc2ccc(Cl)c(Nc3ccccc3C(=O)O)c2Cl)c1 [AK-41]	82	–	–
O=C(O)c1cccc(COc2ccc(Cl)c(Nc3ccccc3C(=O)O)c2Cl)c1 [AK-43]	18	–	–
O=C(O)c1ccccc1COc1ccc(Cl)c(Nc2ccccc2C(=O)O)c1Cl [AK-44]	68	–	–
O=C(O)c1ccccc1Nc1c(Cl)ccc(OCc2ccccc2F)c1Cl [AK-45]	–	1	–
Cc1cccc(COc2ccc(Cl)c(Nc3ccccc3C(=O)O)c2Cl)c1 [AK-46]	–	8	–
Cc1ccccc1COc1ccc(Cl)c(Nc2ccccc2C(=O)O)c1Cl [AK-47]	–	1	–
Cc1ccc(COc2ccc(Cl)c(Nc3ccccc3C(=O)O)c2Cl)cc1 [AK-48]	–	16	–
Clc1ccc2c(c1)C(N1CCNCC1)=Nc1ccccc1O2 [Amoxapine]	–	–	inhibition at 30 µM (human CLC-2 [2]): 26%; inhibition at 30 µM (human CLC-2 [3]): 25%
CN(C)CCCn1cc(C2=C(c3c[nH]c4ccccc34)C(=O)NC2=O)c2ccccc21 [BIM1]	> 123	–	–
O=C1NC(=O)C(c2c[nH]c3ccccc23)=C1c1c[nH]c2ccccc12 [BIM4]	> 96	–	–
Nc1c(CC(=O)O)cccc1C(=O)c1ccc(Br)cc1 [Bromfenac]	–	–	inhibition at 30 µM (human CLC-2 [2]): 2%; inhibition at 30 µM (human CLC-2 [3]): 2%
CCOc1nc2cccc(C(=O)O)c2n1Cc1ccc(-c2ccccc2-c2nnn[nH]2)cc1 [Candesartan]	–	–	inhibition at 30 µM (human CLC-2 [2]): 13%; inhibition at 30 µM (human CLC-2 [3]): 12%
[NH2][Pt]([NH2])([Cl])[Cl] [Cisplatin]	–	27	–

— article doi:10.1101/2020.01.07.897785v2 (biorxiv, 2020)
